Results: PMC6891695, “Evaluation of Antifouling Potential and Ecotoxicity of Secondary Metabolites Derived from Red Algae of the Genus Laurencia” (Marine Drugs, 2019)

Experiments:
RTL-W1 cell line = experiment: RTL-W1 alamar blue/resazurin assay (mitochondria function); format: cell-based, rainbow trout; conditions: for EC50: Oncorhynchus mykiss, RTL-W1, Alamar blue/Resazurin assay, 48 h incubation; for effect on general metabolism and mitochondrial activity (in words): RTL-W1
Protocol: The RTL-W1 cell line, a non-transformed rainbow trout liver cell line that has already been used in environmental toxicity assays, was established from the normal liver of an adult rainbow trout by proteolytic dissociation of liver fragments. RTL-W1 cells were cultured in 75 cm^2 culture flasks (Orange Scientific, Braine l’Alleud, Belgium) at 20 °C in Leibovitz’s (L-15, Sigma-Aldrich, St. Louis, MO, USA) medium supplemented with 5% fetal bovine serum (FBS) and 1% L-glutamine in CO2-free incubator. For the cytotoxicity assays of the selected secondary metabolites, cells were seeded at 3 × 10^4 cells/well density in a 96-well tissue culture plate (Orange Scientific Braine l’Alleud, Belgium) in 100 μL culture medium/well for 2 days before the assays. Three different cytotoxicity protocols were used: 1) The alamar blue/resazurin fluorometric/colorimetric cell viability assay to assess the metabolic capacity and mitochondrial function; 2) the crystal violet cell viability assay for indirect quantification of cell death; and 3) the neutral red cell proliferation assay for lysosomal activity. Two days after seeding the cells, cultures were incubated with various concentrations of selected secondary metabolites at 20 °C for 48 h before cell viability was assessed. […] For the alamar blue/resazurin fluorometric/colorimetric cell viability assay, 100 μL of 3 μg/100 μL Resazurin sodium salt (Sigma-Aldrich, St. Louis, MO, USA) in incubation medium was added on each well and incubated under sterile conditions at 20 °C for 4 h. For the crystal violet cell viability assay, after 48 h of incubation with each secondary metabolite, the culture medium was aspirated and cells were washed twice with sterile dd. H2O. The final wash was aspirated and 50 μL of 0.5% (w/v) crystal violet staining solution (20% methanol in dd. H2O) was added to each well followed by incubation for 20 min at room temperature on a bench rocker with a frequency of 20 oscillations per minute. The staining solution was then aspirated and the plate was washed four times with sterile dd. H2O and left to air-dry without its lid for 3 h at room temperature. Next, 200 μL of methanol was added to each well, and the plate was incubated with its lid on for 20 min at room temperature on a bench rocker with a frequency of 20 oscillations per minute. For the neutral red cell proliferation assay, after 48 h of incubation with each secondary metabolite, the culture medium was aspirated and cells were washed twice with phosphate-buffered saline (PBS, pH 7.4). Cells were then incubated with 100 μL of a 40 μg/mL neutral red staining solution in culture medium at 20 °C for 4 h followed by two washes with 150 μL of PBS. Then cells were incubated with 100 μL neutral red destain solution (50% ethanol, 49% dd. H2O, 1% glacial acetic acid) for 10 min on a bench rocker with a frequency of 80 oscillations per minute. Absorbance was read at 570 nm for alamar blue/resazurin and crystal violet and at 540 nm for neutral red using a Tecan infinite M200 Pro microplate reader. For each assay and each secondary metabolite, a minimum of four independent dose–response experiments with three replicates each were carried out. Calculations were carried out using detailed formulas (AbCam, Cambridge, UK, and results were analyzed with GraphPad Prism v.6.
(§1) For EC50 or IC50 (the concentration that results in 50% stimulation or inhibition relative to the control) calculations in GraphPad Prism v.6, all data were fitted to the curve according to the following models for normalized response: Y = 100/(1 + 10^((X − LogIC50))) or Y = 100/(1 + 10^((LogEC50 − X))) depending on the trend of the curve.

[1] = test system: Pseudomonas pseudoalcaligenes; experiment: Marine bacteria growth assay (disc diffusion); format: cell-based; conditions: 24 h at 25 °C
Protocol: (§2) The ability of selected metabolites to inhibit the growth of bacteria was assessed using five strains of marine bacteria involved in marine surface biofilm formation, namely, B. subtilis, B. mojavensis, B. thuringiensis, P. putita and P. pseudoalcaligenes. Bacterial strains were maintained on Zobel marine agar plates. Sterile filter paper discs (4 mm) (GF/F; GE Healthcare, Little Chalfont, UK) were loaded with 40 μL samples of serial dilutions of each tested metabolite, allowed to dry at room temperature and then placed on agar plates (Zobel marine agar, pH = 7.3), which were seeded with a single strain of bacteria. Plates were incubated for 24 h at 25 °C. Marine bacteria growth inhibition was determined by measuring the zone of inhibition in mm around the filter paper disc. As a positive and negative control, standard discs were loaded with 40 μL of 0.5 M penicillin G (2 to 10 mm diameter) or solvent (40 μL methanol), respectively.

Bacillus mojavensis = experiment: Marine bacteria growth assay (disc diffusion); format: cell-based; conditions: 24 h at 25 °C
Protocol: as §2

Pseudomonas putita = experiment: Marine bacteria growth assay (disc diffusion); format: cell-based; conditions: 24 h at 25 °C
Protocol: as §2

Bacillus subtilis = experiment: Marine bacteria growth assay (disc diffusion); format: cell-based; conditions: 24 h at 25 °C
Protocol: as §2

Bacillus thuringiensis = experiment: Marine bacteria growth assay (disc diffusion); format: cell-based; conditions: 24 h at 25 °C
Protocol: as §2

Chaetoceros gracilis = Chaetoceros gracilis toxicity (phytoplankton growth) assay; format: cell-based; conditions: for EC50: Chaetoceros neogracilis, 96 h
Protocol: For phytoplankton growth toxicity assays, the criterion for assay validity was that the cell count of the negative control after 96 h should be ≥2 × 10^5 cells/mL [40].
The centric marine diatom C. gracilis Schütt (strain CCMP1315) was grown photoautotrophically in autoclaved artificial seawater (sea salts; Sigma-Aldrich, St. Louis, MO, USA) (30‰) supplemented with F/2 (half-strength medium f as subsequently modified) in 100 mL medium at 20 °C and with ambient air bubbled in the media. By monitoring cell density, an adjusted culture of >1 × 10^6 cells/mL was used for the toxicity assays. At 96 h, a 0.9 mL aliquot of each treatment was sampled, mixed with 0.1 mL Lugol and cell density was counted. Experiments were assumed valid if cell count in the control after 96 h was […].
as §1

Which EC50 (RTL-W1 cell line) does the source give for `CC(C)[C@@H]1CC=C[C@H]2[C@H]3[C@](C)(CC[C@]12CBr)[C@@H](Br)CC[C@@]3(C)O` [Bromosphaerol, reference compound] here?
The EC50 was > 1000 µM.

And the “effect on bacterial growth” value [1]?
The value was “none of these metabolites had any effect”.

And the “effect on bacterial growth” value (Bacillus mojavensis)?
The value was “none of these metabolites had any effect”.

And the “effect on bacterial growth” value (Pseudomonas putita)?
The value was “none of these metabolites had any effect”.

And the “effect on bacterial growth” value (Bacillus subtilis)?
The value was “none of these metabolites had any effect”.

And the “effect on bacterial growth” value (Bacillus thuringiensis)?
Its value is “none of these metabolites had any effect”.

And the “inhibition of C. gracilis growth (in words)” value (Chaetoceros gracilis)?
Its value is “very potent inhibitor of C. gracilis growth”.

And the EC50 (Chaetoceros gracilis)?
The EC50 was 4.34 µM.

With `CC1=C2CC[C@@](C)(Cl)[C@@H](Br)C[C@]2(C)[C@@H](C)[C@@H](Br)[C@@H]1O` [Compound 9, perforenol] as the molecule, how does the EC50 (RTL-W1 cell line) read?
The EC50 was > 1000 µM.

What about the “effect on general metabolism and mitochondrial activity (in words)” value (“effect … (in words)” for short) (RTL-W1 cell line) of the same molecule?
The value was “none of the three tested metabolites had an effect”.

And the “effect on bacterial growth” value [1]?
The value was “none of these metabolites had any effect”.

What about the “effect on bacterial growth” value (Bacillus mojavensis) of the same molecule?
Its value is “none of these metabolites had any effect”.

What about the “effect on bacterial growth” value (Pseudomonas putita) of the same molecule?
Its value is “none of these metabolites had any effect”.

And the “effect on bacterial growth” value (Bacillus subtilis)?
The value was “none of these metabolites had any effect”.

And the “effect on bacterial growth” value (Bacillus thuringiensis)?
The value was “none of these metabolites had any effect”.

And the EC50 (Chaetoceros gracilis)?
Its EC50 is 49.8 µM.

How did the EC50 (RTL-W1 cell line) turn out when `C=CC(C)(O)CC[C@@H]1C(=C)CC[C@@H](Br)[C@@]1(C)CCC1OC1(C)C` (some centres unmarked) [Compound 18] was run?
The EC50 was > 1000 µM.

And the “effect … (in words)” value (RTL-W1 cell line)?
Its value is “none of the three tested metabolites had an effect”.

And the “effect on bacterial growth” value [1]?
Its value is “none of these metabolites had any effect”.

And the “effect on bacterial growth” value (Bacillus mojavensis)?
Its value is “none of these metabolites had any effect”.

What about the “effect on bacterial growth” value (Pseudomonas putita) of the same molecule?
Its value is “none of these metabolites had any effect”.

And the “effect on bacterial growth” value (Bacillus subtilis)?
Its value is “none of these metabolites had any effect”.

And the “effect on bacterial growth” value (Bacillus thuringiensis)?
Its value is “none of these metabolites had any effect”.

What about the EC50 (Chaetoceros gracilis) of the same molecule?
The EC50 was 10.7 µM.

How did the EC50 (RTL-W1 cell line) turn out when `C=C(C1CCC(C)(O)C(Br)C1)C1C(Br)C2C(CCC2(C)O)C1(C)C` (centres unmarked) [Compound 19, neorogioldiol] was run?
The EC50 was > 1000 µM.

And the “effect … (in words)” value (RTL-W1 cell line)?
Its value is “none of the three tested metabolites had an effect”.

And the “effect on bacterial growth” value [1]?
The value was “none of these metabolites had any effect”.

And the “effect on bacterial growth” value (Bacillus mojavensis)?
The value was “none of these metabolites had any effect”.

What about the “effect on bacterial growth” value (Pseudomonas putita) of the same molecule?
The value was “none of these metabolites had any effect”.

And the “effect on bacterial growth” value (Bacillus subtilis)?
The value was “none of these metabolites had any effect”.

And the “effect on bacterial growth” value (Bacillus thuringiensis)?
The value was “none of these metabolites had any effect”.

What about the EC50 (Chaetoceros gracilis) of the same molecule?
The EC50 was 352 µM.
